Measured values taken from patent US11998536B2, “Decreasing expression level of proteasome subunit genes by treating a human subject with a nitroxide” (priority 2018, dated 2024).

How the values were obtained:
[1] = biological target: β1 (caspase-like) sites of the proteasome (Homo sapiens, UniProt P28072); settings: relative to β5/β5i sites; cited from earlier work
[2] = test system: β5/β5i sites (chymotrypsin-like sites) of the proteasome; settings: cited from earlier work
[3] = biological target: β2 sites of the proteasome (Homo sapiens, UniProt Q99436); settings: under normal conditions; cited from earlier work
[4] = test system: genes associated with proteasome activity; assay: Gene expression in Tempol-fed mice, chip-based microarray (summary in text); assay type: in vivo; settings: Tempol 5 mg/g of food from 14 to 31 months; cardiac tissue; vs mice on same food without Tempol
Experimental: (§1) To assess the effects of Tempol on gene expression, Tempol was administered to experimental mice at a dose of 5 mg/g of food from 14 months to 31 months after birth. Mice receiving the same food without the addition of Tempol were used as a negative control. At the age of 31 months, the experimental animals were sacrificed and the hearts were surgically removed. The expression of a broad spectrum of genes in the cardiac tissue was assessed using chip-based microarray technology. Such chips are well known in the art and are widely used to assess gene expression.

[5] = test system: Psmd13; assay: Gene expression in Tempol-fed mice, chip-based microarray; assay type: in vivo; settings: white adipose tissue per table title (cardiac tissue per text)
Experimental: as §1

[6] = test system: Psmc3; assay: as above; assay type: in vivo; settings: white adipose tissue per table title (cardiac tissue per text)
Experimental: as §1

[7] = test system: Psmd4; assay: as above; assay type: in vivo; settings: white adipose tissue per table title (cardiac tissue per text)
Experimental: as §1

[8] = test system: Psmd3; assay: as above; assay type: in vivo; settings: white adipose tissue per table title (cardiac tissue per text)
Experimental: as §1

[9] = test system: Psmc6; assay: as above; assay type: in vivo; settings: white adipose tissue per table title (cardiac tissue per text)
Experimental: as §1

[10] = test system: Psma7; assay: as above; assay type: in vivo; settings: white adipose tissue per table title (cardiac tissue per text)
Experimental: as §1

[11] = test system: Psmd12; assay: as above; assay type: in vivo; settings: white adipose tissue per table title (cardiac tissue per text)
Experimental: as §1

[12] = test system: Psmc4; assay: as above; assay type: in vivo; settings: white adipose tissue per table title (cardiac tissue per text)
Experimental: as §1

[13] = test system: Psma2; assay: as above; assay type: in vivo; settings: white adipose tissue per table title (cardiac tissue per text)
Experimental: as §1

[14] = test system: Psma6; assay: as above; assay type: in vivo; settings: white adipose tissue per table title (cardiac tissue per text)
Experimental: as §1

[15] = test system: Psmd14; assay: as above; assay type: in vivo; settings: white adipose tissue per table title (cardiac tissue per text)
Experimental: as §1

[16] = test system: Psmb4; assay: as above; assay type: in vivo; settings: white adipose tissue per table title (cardiac tissue per text)
Experimental: as §1

[17] = test system: Psmb5; assay: as above; assay type: in vivo; settings: white adipose tissue per table title (cardiac tissue per text)
Experimental: as §1

[18] = test system: Psmd9; assay: as above; assay type: in vivo; settings: white adipose tissue per table title (cardiac tissue per text)
Experimental: as §1

[19] = test system: Psmc2; assay: as above; assay type: in vivo; settings: white adipose tissue per table title (cardiac tissue per text)
Experimental: as §1

[20] = test system: Psme4; assay: as above; assay type: in vivo; settings: white adipose tissue per table title (cardiac tissue per text)
Experimental: as §1

[21] = Tempol 5 mg/g of food from 14 to 31 months, microarray
[22] = Tempol-treated vs control mice, 5 mg/g of food from 14 to 31 months

CC(C)C[C@H](NC(=O)[C@H](Cc1ccccc1)NC(=O)c1cnccn1)B(O)O [bortezomib]
Affinity for β1 sites, lower than for β5/β5i sites [1]: approximately 10 fold | Inhibition of β5/β5i sites [2]: high potency | Targeting of β2 sites [3]: not appreciably targeted

CC1(C)CC(O)CC(C)(C)N1[O] [Tempol, 4-hydroxy-2,2,6,6-tetramethylpiperidine-1-oxyl]
Change in expression of the 16 listed proteasome genes [4]: statistically significant decrease in expression | Psmd13 expression, Tempol-treated mice [5, 21]: 1047 | Psmd13 fold change [5, 22]: −1.23 | Psmc3 expression, Tempol-treated mice [6, 21]: 1810 | Psmc3 fold change [6, 22]: −1.23 | Psmd4 expression, Tempol-treated mice [7, 21]: 2610 | Psmd4 fold change [7, 22]: −1.20 | Psmd3 expression, Tempol-treated mice [8, 21]: 1017 | Psmd3 fold change [8, 22]: −1.12 | Psmc6 expression, Tempol-treated mice [9, 21]: 1449 | Psmc6 fold change [9, 22]: −1.16 | Psma7 expression, Tempol-treated mice [10, 21]: 1513 | Psma7 fold change [10, 22]: −1.23 | Psmd12 expression, Tempol-treated mice [11, 21]: 1098 | Psmd12 fold change [11, 22]: −1.20 | Psmc4 expression, Tempol-treated mice [12, 21]: 1101 | Psmc4 fold change [12, 22]: −1.52 | Psma2 expression, Tempol-treated mice [13, 21]: 3123 | Psma2 fold change [13, 22]: −1.20 | Psma6 expression, Tempol-treated mice [14, 21]: 3467 | Psma6 fold change [14, 22]: −1.09 | Psmd14 expression, Tempol-treated mice [15, 21]: 2745 | Psmd14 fold change [15, 22]: −1.20 | Psmb4 expression, Tempol-treated mice [16, 21]: 3614 | Psmb4 fold change [16, 22]: −1.15 | Psmb5 expression, Tempol-treated mice [17, 21]: 1754 | Psmb5 fold change [17, 22]: −1.15 | Psmd9 expression, Tempol-treated mice [18, 21]: 310 | Psmd9 fold change [18, 22]: −1.18 | Psmc2 expression, Tempol-treated mice [19, 21]: 2176 | Psmc2 fold change [19, 22]: −1.23 | Psme4 expression, Tempol-treated mice [20, 21]: 1086 | Psme4 fold change [20, 22]: −1.16
